This passage reports Relative Vmax results from ChEMBL document CHEMBL1124124, “Synthesis and interaction with uridine phosphorylase of 5'-deoxy-4',5-difluorouridine, a new prodrug of 5-fluorouracil” (J Med Chem, 1988).

In the experiment the test system is Uridine phosphorylase (Mus musculus). Briefly: Relative Vmax for interaction with Urd phosphorylase.

Consider `C[C@@]1(F)OC(n2cc(F)c(=O)[nH]c2=O)[C@H](O)[C@@H]1O` (stereo partly specified), for which the Relative Vmax came to 5.
